Reference: article PMC9077138, “An investigation on 3-acetyl-7-methoxy-coumarin Schiff bases and their Ru(II) metallates with potent antiproliferative activity and enhanced LDH and NO release” (RSC Advances, 2018)
Where two headings read alike, the source gives them in different places.

Legend:
C. albicans = assay: In vitro antifungal assay (zone of inhibition, MIC); type: cell-based, Candida albicans; settings: for Minimum inhibitory concentration (MIC); head: IC50 VALUES / Zone of inhibition: C. albicans; for zone of inhibition at 50 µg/mL / zone of inhibition at 100 µg/mL: Candida albicans
Procedure: (§1) The free ligands and their cyclometallated ruthenium(II) carbonyl complexes were screened for their in vitro antimicrobial activity against certain pathogenic bacterial and fungal species at three different concentrations using disc diffusion method.
(§2) Antimicrobial activities of [RuHClCO(PPh3)3], ligands H2L^1–4 and new organometallic Ru(II) complexes (1–4) were evaluated by agar well diffusion method[76] as reported, by taking Staphylococcus aureus, Streptococcus pneumonie, Pseudomonas aeruginosa, Salmonella paratyphi and fungus such as Candida albicans, Trichophyton rubrum, Aspergillus niger, Aspergillus fumigatus and Candida tropicalis. The above said all test organisms were obtained from the MTCC, Chandigarh, India and Microbiological laboratory, Coimbatore, Tamil Nadu, India. The antimicrobial activity of the test compounds was checked with various concentrations (25 μg ml^−1, 50 μg ml^−1 and 100 μg ml^−1) against all the test pathogens. Gentamicin and ketoconazole were used as positive controls to study the antibacterial and antifungal activities respectively. Each experiment was performed in triplicate and the results are represented as average zone of inhibition and minimum inhibitory concentration of all the test pathogens.

Trichophyton rubrum = assay: as above; type: cell-based
Procedure: as §1, §2

Candida tropicalis = assay: as above; type: cell-based
Procedure: as §1, §2

Aspergillus fumigatus = assay: as above; type: cell-based
Procedure: as §1, §2

Aspergillus niger = assay: as above; type: cell-based
Procedure: as §1, §2

[1] = tested on: human lung carcinoma cancer cell line A549; assay: MTT cytotoxicity assay; type: cell-based; settings: read-out: IC50 values A549
Source text: (§3) The DNA/protein binding studies, antioxidant and antimicrobial studies had shown that the ligands and ruthenium(II) complexes studied here have therapeutic potentials and were subjected to study their anticancer activity. A number of coumarin derivatives have shown considerable anticancer activity against a number of cell lines. All the 3-acetyl-7-methoxy-coumarin-4(N)-substituted thiosemicarbazone ligands, metal precursor [RuHClCO(PPh3)3] and their new cyclometallated Ru(II) complexes were assessed for their cytotoxicity with two human derived cell lines namely human lung carcinoma (A549) and human breast cancer cells (MCF-7) by using MTT assay. For comparison purpose, cisplatin was used as a positive control under identical conditions.
(§4) Cytotoxic activity of the compounds was tested with human lung cancer cell lines A549, human breast cancer cell lines MCF-7 and human normal keratinocyte cells (HaCaT) by using MTT assay, which was done according to the earlier literature methods[77] and IC50 values obtained from nonlinear regression using GraphPad Prism 5.[78] The LDH release[79] and NO release[80] assays of the compounds was evaluated by the earlier reported methods.

[2] = tested on: human breast cancer cell line MCF-7; assay: MTT cytotoxicity assay; type: cell-based; settings: read-out: IC50 values MCF-7
Source text: as §3, §4

HSA = target: T1, HSA (Homo sapiens, UniProt P02768); assay: HSA tryptophan fluorescence quenching; type: binding; settings: for Quenching constant kq / Stern–Volmer KSV / number of binding sites n / Binding constant Kbin / Kd: HSA; for Binding constant Kbin / Kd: Scatchard equation; for decrease of HSA fluorescence intensity: compounds 10–100 μM, HSA 10 μM; for Kd: read-out: Binding constant Kbin (converted)
T1 construct: purchased HiMedia (Mumbai, India)
T1 sequence (P02768 25-609): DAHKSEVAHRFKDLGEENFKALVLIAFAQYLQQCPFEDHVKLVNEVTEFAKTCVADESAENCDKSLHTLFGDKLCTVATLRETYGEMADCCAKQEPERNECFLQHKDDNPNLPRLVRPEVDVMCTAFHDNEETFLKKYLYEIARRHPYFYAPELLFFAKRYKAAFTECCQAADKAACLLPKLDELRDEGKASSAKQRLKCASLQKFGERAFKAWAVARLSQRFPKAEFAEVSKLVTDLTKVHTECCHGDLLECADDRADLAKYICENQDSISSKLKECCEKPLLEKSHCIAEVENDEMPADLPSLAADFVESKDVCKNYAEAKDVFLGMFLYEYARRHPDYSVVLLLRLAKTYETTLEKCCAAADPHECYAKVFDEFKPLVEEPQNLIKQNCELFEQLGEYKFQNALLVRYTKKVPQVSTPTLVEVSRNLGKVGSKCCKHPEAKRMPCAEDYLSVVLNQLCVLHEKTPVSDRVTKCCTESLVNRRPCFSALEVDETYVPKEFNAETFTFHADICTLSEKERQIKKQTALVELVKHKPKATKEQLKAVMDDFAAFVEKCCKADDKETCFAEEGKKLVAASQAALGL
Source text: The obtained results confirmed the interaction of the ligands and complexes with serum albumins. The absorption spectra of the serum albumins in the absence and presence of ligands H2L^1–4 and the complexes 1–4 are given in Fig. S29 in the ESI. ^† On adding ligands and complexes 1–4 to albumins, the absorbance intensity of serum albumins was decreased with a red shift of 2 nm. The observed changes indicated a static quenching mechanism of serum albumins by the ligands and complexes (1–4). To obtain a quantitative insight into the quenching progression, the Stern–Volmer quenching constant (KSV) and the quenching constant (Kq) were calculated from the Stern–Volmer equation using the Io/ICorrversus [Q] plot (Table 4).[53] The observed linearity in the plots (Fig. 13) indicated the ability of the compounds to quench the emission intensity of serum albumins and the order of quenching constant of the compounds is complex 3 > complex 2 > complex 1 > complex 4 > H2L^3 > H2L^2 > H2L^1 > H2L^4.
Furthermore, the equilibrium binding constant and number of binding sites were evaluated by using the Scatchard equation. The Kbin values were derived from the graph between log[(Fo − F)/F] and log[Q] From the results, we confirmed that the Ru(II) complexes having a large hydrophobic area can interact more efficiently than the ligands with serum albumins via a static pathway. The higher binding affinity of the complexes over the ligands may be due to the efficient binding of protein moiety with the complexed metal ions. Here, the binding affinities of the complexes with serum albumins followed the same order as those with DNA binding studies, complex 3 > complex 2 > complex 1 > complex 4 > H2L^3 > H2L^2 > H2L^1 > H2L^4. Variation in the binding affinity of the compounds with serum albumins depends on the electron-donating ability of the ligand, i.e. the substitution on the N-terminal nitrogen atom. The binding capability of the compounds to serum albumins increased with the increase in electron-donating ability of the substituent on the terminal nitrogen of the coordinated thiosemicarbazone ligand. The obtained quenching constant and binding constant values of these new cyclometallated ruthenium(II) complexes agree well with those reported for other ruthenium(II) complexes.[31,44,54–56] […]
Serum albumin binding study
Bovine Serum Albumin (BSA) and human serum albumin were purchased from Hi Media, The protein binding study was performed by tryptophan fluorescence quenching experiments using bovine serum albumin (BSA, 10 µM) or human serum albumin (HSA, 10 µM) as the substrate in phosphate buffer (pH= 7.2). Quenching of the emission intensity of tryptophan residues of BSA at 346 nm (excitation wavelength at 280 nm)/ HSA at 345 nm (excitation wavelength at 290 nm) was monitored using ligands and complexes as quenchers with increasing concentration (10-100µM). Synchronous fluorescence spectra of BSA or HSA with various concentrations of the complexes were obtained from 300 to 400 nm when ∆λ = 60 nm and from 290 to 500 nm when ∆λ = 15 nm. For synchronous fluorescence spectra, the same concentrations of serum albumins and the compounds were also used and the spectra were measured at two different Δλ values (difference between the excitation and emission wavelengths of BSA), such as 15 and 60 nm. Fluorescence and synchronous measurements were performed using a 1 cm quartz cell on a JASCO FP 6600 spectrofluorimeter.
The quenching data can be analyzed according to the Stern-Volmer equation, […]
Io/Icorr =K SV[Q]+1 Eq (S2) where Iₒ is the emission intensity in the absence of compound, Icorr is the corrected emission intensity in the presence of compound, KSV is the quenching constant and [Q] is the concentration of the compound.
In order to correct the inner filter effect, the following equation used Icorr = Iobs*10 (Aexc+Aem)/2 where Icorr is the corrected fluorescence value, Iobs the measured fluorescence value, Aexc is […]

[3] = tested on: human normal keratinocyte cells (HaCaT); assay: MTT cytotoxicity assay; type: cell-based; settings: 48 h, read-out: IC50 values HaCaT
Procedure: In order to investigate the selectivity of the compounds for cancer cells rather than normal cell lines, the compounds were also screened for their anticancer activity on the human normal keratinocyte cells (HaCaT).
as §4

Row | Compound | Minimum inhibitory concentration (MIC); head: IC50 VALUES (C. albicans) [µM] | Zone of inhibition (C. albicans; 50 µg/ml) [mm] | Zone of inhibition (C. albicans; 100 µg/ml) [mm] | Minimum inhibitory concentration (MIC); head: IC50 VALUES (Trichophyton rubrum) [µM] | Zone of inhibition (Trichophyton rubrum; 50 µg/ml) [mm] | Zone of inhibition (Trichophyton rubrum; 100 µg/ml) [mm] | Minimum inhibitory concentration (MIC); head: IC50 VALUES (Candida tropicalis) [µM] | Zone of inhibition (Candida tropicalis; 50 µg/ml) [mm] | Zone of inhibition (Candida tropicalis; 100 µg/ml) [mm] | Minimum inhibitory concentration (MIC); head: IC50 VALUES (Aspergillus fumigatus) [µM] | Zone of inhibition (Aspergillus fumigatus; 50 µg/ml) [mm] | Zone of inhibition (Aspergillus fumigatus; 100 µg/ml) [mm] | Minimum inhibitory concentration (MIC); head: IC50 VALUES (Aspergillus niger) [µM] | Zone of inhibition (Aspergillus niger; 50 µg/ml) [mm] | Zone of inhibition (Aspergillus niger; 100 µg/ml) [mm] | IC50 ([1]; MTT, 48 h) [µM] | IC50 ([2]; MTT, 48 h) [µM] | Quenching constant kq (HSA) | Stern–Volmer KSV (HSA) | number of binding sites n (HSA) | also measured
1 | COc1ccc2[c]3c(c(=O)oc2c1)C(C)=[N+]1N=C(N)[S][Ru-4]31([C]#[O+])([P+](c1ccccc1)(c1ccccc1)c1ccccc1)[P+](c1ccccc1)(c1ccccc1)c1ccccc1 [Complex 1, [Ru(7MAC-tsc)(CO)(PPh3)2]] | 15.19 ± 0.15 | 12.22±0.41 | 18.91±0.41 | 15.29 ± 0.29 | 11.57±0.22 | 17.56±0.13 | 15.15 ± 0.11 | 12.82±0.34 | 18.51±0.54 | 15.56 ± 0.11 | 12.31±0.62 | 19.64±0.65 | 15.89 ± 0.18 | 11.74±0.26 | 17.52±0.41 | 2.96 ± 0.07 | 2.86 ± 0.17 | 0.741 ± 0.010 × 10^12 M^−1 s^−1 | 0.741 ± 0.010 × 10^4 M^−1 | 1.1329 ± 0.018 | Binding constant Kbin (HSA): 2.273 ± 0.017 × 10^4 M^−1; decrease of HSA fluorescence intensity (HSA): 41.01%; IC50 ([3]; MTT, normal cells): > 40 µM
2 | CCNC1=N[N+]2=C(C)c3[c](c4ccc(OC)cc4oc3=O)[Ru-4]2([C]#[O+])([P+](c2ccccc2)(c2ccccc2)c2ccccc2)([P+](c2ccccc2)(c2ccccc2)c2ccccc2)[S]1 [Complex 3, [Ru(7MAC-etsc)(CO)(PPh3)2]] | 13.24 ± 0.16 | 12.29±0.15 | 17.73±0.21 | 14.97 ± 0.31 | 13.25±0.52 | 17.44±0.61 | 13.37 ± 0.16 | 13.55±0.34 | 17.91±0.31 | 14.44 ± 0.27 | 13.53±0.13 | 18.31±0.21 | 14.44 ± 0.21 | 12.73±0.55 | 18.43±0.12 | 2.37 ± 0.04 | 2.53 ± 0.1 | 1.189 ± 0.030 × 10^12 M^−1 s^−1 | 1.189 ± 0.030 × 10^4 M^−1 | 1.2027 ± 0.030 | Binding constant Kbin (HSA): 7.194 ± 0.041 × 10^4 M^−1; decrease of HSA fluorescence intensity (HSA): 53.45%; IC50 ([3]; MTT, normal cells): > 40 µM
3 | COc1ccc2cc(/C(C)=N\NC(=S)Nc3ccccc3)c(=O)oc2c1 [H2L^4, ((1E)-1-(1-(7-methoxy-2-oxo-2H-chromen-3-yl)ethylidene) 4(N)-phenylthiosemicarbazone)] |  |  |  |  |  |  |  |  |  |  |  |  |  |  |  |  |  |  |  |  | zone of inhibition at 50 µg/mL (C. albicans): 12.3 ± 0.21 mm; zone of inhibition at 100 µg/mL (C. albicans): 17.19 ± 0.15 mm; zone of inhibition at 50 µg/mL (Trichophyton rubrum): 12.4 ± 0.32 mm; zone of inhibition at 100 µg/mL (Trichophyton rubrum): 16.4 ± 0.66 mm; zone of inhibition at 50 µg/mL (Candida tropicalis): 12.2 ± 0.23 mm; zone of inhibition at 100 µg/mL (Candida tropicalis): 19.2 ± 0.32 mm; zone of inhibition at 50 µg/mL (Aspergillus fumigatus): 11.3 ± 0.33 mm; zone of inhibition at 100 µg/mL (Aspergillus fumigatus): 18.22 ± 0.14 mm; zone of inhibition at 50 µg/mL (Aspergillus niger): 12.5 ± 0.83 mm; zone of inhibition at 100 µg/mL (Aspergillus niger): 17.3 ± 0.21 mm; IC50 ([1]; Homo sapiens, A549, 48 h): 13.8 ± 0.18 µM; IC50 ([2]; Homo sapiens, MCF7, 48 h): 13.1 ± 0.25 µM; Kd (HSA): 858 µM; IC50 ([3]; Homo sapiens, HaCaT): > 40 µM
4 | CNC1=N[N+]2=C(C)c3[c](c4ccc(OC)cc4oc3=O)[Ru-4]2([C]#[O+])([P+](c2ccccc2)(c2ccccc2)c2ccccc2)([P+](c2ccccc2)(c2ccccc2)c2ccccc2)[S]1 [Complex 2, [Ru(7MAC-mtsc)(CO)(PPh3)2]] | 13.59 ± 0.15 | 12.45±0.31 | 16.28±0.10 | 15.14 ± 0.24 | 12.16±0.15 | 17.45±0.35 | 13.46 ± 0.15 | 12.64±0.15 | 19.52±0.27 | 14.70 ± 0.1 | 12.61±0.71 | 17.36±0.45 | 14.67 ± 0.31 | 11.56±0.24 | 19.63±0.12 | 2.93 ± 0.07 | 2.62 ± 0.07 | 1.088 ± 0.030 × 10^12 M^−1 s^−1 | 1.088 ± 0.030 × 10^4 M^−1 | 1.1859 ± 0.004 | Binding constant Kbin (HSA): 6.341 ± 0.039 × 10^4 M^−1; decrease of HSA fluorescence intensity (HSA): 50.56%; IC50 ([3]; MTT, normal cells): > 40 µM
5 | COc1ccc2cc(C(C)=NNC(N)=S)c(=O)oc2c1 [H2L^1, ((1E)-1-(1-(7-methoxy-2-oxo-2H-chromen-3-yl)ethylidene)thiosemicarbazone)] |  |  |  |  |  |  |  |  |  |  |  |  |  |  |  |  |  |  |  |  | zone of inhibition at 50 µg/mL (C. albicans): 11.2 ± 0.14 mm; zone of inhibition at 100 µg/mL (C. albicans): 17 ± 0.91 mm; zone of inhibition at 50 µg/mL (Trichophyton rubrum): 13.2 ± 0.16 mm; zone of inhibition at 100 µg/mL (Trichophyton rubrum): 17.3 ± 0.51 mm; zone of inhibition at 50 µg/mL (Candida tropicalis): 11.93 ± 0.01 mm; zone of inhibition at 100 µg/mL (Candida tropicalis): 17.4 ± 0.51 mm; zone of inhibition at 50 µg/mL (Aspergillus fumigatus): 11.2 ± 0.73 mm; zone of inhibition at 100 µg/mL (Aspergillus fumigatus): 17.4 ± 0.22 mm; zone of inhibition at 50 µg/mL (Aspergillus niger): 13.1 ± 0.33 mm; zone of inhibition at 100 µg/mL (Aspergillus niger): 17.41 ± 0.14 mm; IC50 ([1]; Homo sapiens, A549, 48 h): 12.6 ± 0.17 µM; IC50 ([2]; Homo sapiens, MCF7, 48 h): 13.1 ± 0.29 µM; Kd (HSA): 477 µM; IC50 ([3]; Homo sapiens, HaCaT): > 40 µM
